In patent US20240382509A1, “Cannabinoids C- and O-glycosides possessing anti-proliferative and anti-metastatic properties and process for preparation thereof” (Council of Scientific and Industrial Research, priority 2021, published 2024):

System: γH2AX in HCT-116 cells
Assay: γH2AX immunofluorescence after combinatorial treatment of 5FU and compound 2a
Assay type: cell-based
Conditions: HCT-116, 750 nM 5FU+3 μM 2a
Method: Assessment of DNA damage by combinatorial treatment of 5FU and Compound 2a. An immunofluorescence study was performed to assess the expression of γH2AX, which tends to form a complex with damaged DNA resulting in the formation of a beads-like structure when tagged with a fluorescent labelled antibody. Briefly, HCT-116 cells were seeded in 8 well chamber slide and treated with vehicle, 750 nM 5FU+3 μM 2a for 36, 48, and 60 h and 750 nM 5FU for 60 h. Following termination of drug treatment, the cells were washed with ice-cold PBS and fixed with 4% paraformaldehyde for 10 min. Subsequently, permeabilization was done by incubating the cells with 0.1% Triton X-100. Before incubating with primary antibody (anti-γH2AX mouse monoclonal antibody), the cells were blocked with 5% BSA for 1-2 h; consequently, the cells were incubated with primary antibody (1:200) for overnight at 4° C. Subsequently, the cells were washed with ice-cold PBS for five times and further incubated with secondary anti-mouse antibody (1:500) for 30 min. The slides, after thorough washing with PBS, were mounted in DAPI containing mounting media. The images were captured in Floid imaging station at 20× optical magnification, and digital zooming was done up to […].
The effect of the compound 2a in combination with DNA damaging drug 5-Fluorouracil in colon adenocarcinoma cells was studied. […]

SMILES: CCCCCc1cc(O[C@@H]2OC(CO)[C@@H](O)C(O)C2O)c2c(c1)OC(C)(C)[C@@H]1CCC(C)=C[C@@H]21 (stereo partly drawn) [Compound 2a, Δ^9-tetrahydrocannabinol-1-O-β-D-glucopyranoside]
- expression of γH2AX (immunocytochemistry): increased expression
